pEC50, pIC50: −log10 of the molar value.
What was measured:
[1] = tested on: full length TNFα (amino acids 1-233) fused to Gaussia Luciferase; assay: Dox Induced TNFα-FL-Gluc Assay; assay type: cell-based; conditions: 24 hr, 293FRT/TO; read-out: 24 hr Dox Inducible TNFaFLGluc 293FRT/TO: Mean IC50
Outline: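 Stable Flp-In 293 T-REx line expressing doxycycline-inducible full-length TNFα fused to Gaussia luciferase; cells plated the day before, then treated with compound dilutions in doxycycline-containing medium at 37° C, 5% CO2. Unspecified stereocentres mean stereoisomer mixtures were tested.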

[2] = In Vitro Microsome Stability Assay (human); assay type: in vitro ADME; conditions: human, 30 min, NADPH
Outline: (§1)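 The value reported is the percentage of parent left after 30 min, calculated from analyte/IS peak-area ratios relative to time zero by LC-MS/MS. Incubations ran at 37° C in 0.1 M potassium phosphate with NADPH and microsomes (stock 20 mg/mL), with compound added from a 0.25 mM DMSO stock. Acetonitrile containing IS stopped the reactions.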

[3] = In Vitro Microsome Stability Assay (rat); assay type: in vitro ADME; conditions: rat, 30 min, NADPH
Outline: as §1

[4] = tested on: multiple myeloma cell line U266B1; assay: U266 Cell Viability Assay; assay type: cell-based, human; conditions: Homo sapiens, U-266; 48 hr, U266; read-out: 48 hr U266 Viability Celltiter-Glo: Mean EC50
Outline: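 U266B1 myeloma cells in RPMI 1640 with 10% FBS were treated with compound dilutions for 48 h at 37° C, 5% CO2. Viability was read as CellTiter-Glo luminescence. Data for structures drawn without stereochemistry refer to stereoisomer mixtures.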

[5] = In Vitro Microsome Stability Assay (monkey); assay type: in vitro ADME; conditions: monkey, 30 min, NADPH
Outline: as §1

[6] = In Vitro Microsome Stability Assay (mouse); assay type: in vitro ADME; conditions: mouse, 30 min, NADPH
Outline: as §1

[7] = tested on: PD1 signal sequence plus 10 amino acids fused to Gaussia Luciferase (PD1-ss+10aa/Gaussia Luciferase); assay: Dox Induced PD1-ss-Gluc Assay; assay type: cell-based; conditions: 24 hr, 293FRT/TO; read-out: 24 hr Dox Inducible PD1ssGluc 293FRT/TO: Mean IC50
Outline: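 Stable Flp-In 293 T-REx line expressing the fusion under tetracycline-inducible control, plated the day before assay. Compound dilutions added with doxycycline and incubated at 37 °C, 5% CO2; unspecified stereocentres mean data refer to stereoisomer mixtures.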

[8] = tested on: multiple myeloma cell line NCl-H929; assay: H929 Cell Viability Assay; assay type: cell-based, human; conditions: Homo sapiens, NCI-H929, 48 h, H929, read-out: 48 hr H929 Viability Celltiter-Glo: Mean EC50
Outline: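 NCI-H929 myeloma cells in RPMI 1640 with 10% FBS were treated with compound dilutions for 48 h at 37 °C, and viability was then read by CellTiter-Glo luminescence. Compounds drawn without stereochemistry were tested as stereoisomer mixtures.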

| SMILES | pIC50 [1] | Liver Microsome Stability-% Left after 30 min w/ NADPH (%) Human [2] [%] | Liver Microsome Stability-% Left after 30 min w/ NADPH (%) Rat [3] [%] | pEC50 [4] | Liver Microsome Stability-% Left after 30 min w/ NADPH (%) Monkey [5] [%] | Liver Microsome Stability-% Left after 30 min w/ NADPH (%) Mouse [6] [%] | pIC50 [7] | pEC50 [8] |
| --- | --- | --- | --- | --- | --- | --- | --- | --- |
| C=C1CN(S(=O)(=O)c2ccc(N(C)C)cc2)CCCN(CC2CCCCC2)CCCN(S(=O)(=O)N2CCc3cc(C#N)ccc3C2)C1 [A70, 2-{[9-(cyclohexylmethyl)-5-[4-(dimethylamino)benzenesulfonyl]-3-methylidene-1,5,9-triazacyclododecan-1-yl]sulfonyl}-1,2,3,4-tetrahydroisoquinoline-6-carbonitrile] | 5.89 | 1.36 | 6.75 | < 4.60 | 3.26 | 3.14 | 7.34 | 5.52 |
| C=C1CN(S(=O)(=O)c2ccc(N(C)C)cc2)CCCN(CC2CCCCC2)CCCN(S(=O)(=O)N2CCc3cc(OC)ccc3C2)C1 [A71, 4-{[9-(cyclohexylmethyl)-5-[(6-methoxy-1,2,3,4-tetrahydroisoquinolin-2-yl)sulfonyl]-3-methylidene-1,5,9-triazacyclododecan-1-yl]sulfonyl}-N,N-dimethylaniline] | 5.70 | 5.55 | 17.2 | < 4.60 | 6.75 | 11.5 | 7.20 | 5.11 |
| C=C1CN(S(=O)(=O)c2ccc(N(C)C)cc2)CCCN(CC2CCCCC2)CCCN(S(=O)(=O)N2CCC(c3ccc(Cl)cc3)CC2)C1 [A72, 4-[(5-{[4-(4-chlorophenyl)piperidin-1-yl]sulfonyl}-9-(cyclohexylmethyl)-3-methylidene-1,5,9-triazacyclododecan-1-yl)sulfonyl]-N,N-dimethylaniline] | 5.16 | 62.5 | 54.6 | < 4.60 | 53.2 | 43.3 | 7.02 | 4.99 |
| C=C1CN(S(=O)(=O)c2ccc(N(C)C)cc2)CCCN(CC2CCCCC2)CCCN(S(=O)(=O)N2CC=C(c3ccccc3Cl)CC2)C1 [A73, 4-[(5-{[4-(2-chlorophenyl)-1,2,3,6-tetrahydropyridin-1-yl]sulfonyl}-9-(cyclohexylmethyl)-3-methylidene-1,5,9-triazacyclododecan-1-yl)sulfonyl]-N,N-dimethylaniline] | 5.73 | 18.2 | 71.5 | < 4.60 | 25.4 | 16.3 | 7.43 | 5.46 |
| C=C1CN(S(=O)(=O)c2ccc(N(C)C)cc2)CCCN(CC2CCCCC2)CCCN(S(=O)(=O)N2CCC(C3CCOCC3)CC2)C1 [A78, 4-{[9-(cyclohexylmethyl)-3-methylidene-5-{[4-(oxan-4-yl)piperidin-1-yl]sulfonyl}-1,5,9-triazacyclododecan-1-yl]sulfonyl}-N,N-dimethylaniline] | < 4.60 | 0.2 | 0.25 | < 4.60 | 0.11 | 0.15 | 6.44 | < 4.60 |
| C=C1CN(S(=O)(=O)c2ccc(N(C)C)cc2)CCCN(CC2CCCCC2)CCCN(S(=O)(=O)N2CCC(n3cccn3)CC2)C1 [A79, 4-{[9-(cyclohexylmethyl)-3-methylidene-5-{[4-(1H-pyrazol-1-yl)piperidin-1-yl]sulfonyl}-1,5,9-triazacyclododecan-1-yl]sulfonyl}-N,N-dimethylaniline] | < 4.60 | 0.16 | 0.1 | < 4.60 | 0.06 | 10.6 | 6.39 | < 4.60 |
| C=C1CN(S(=O)(=O)c2ccc(N(C)C)cc2)CCCN(CC2CCCCC2)CCCN(S(=O)(=O)N2CCC(c3nc4ccccc4o3)CC2)C1 [A80, 4-[(5-{[4-(1,3-benzoxazol-2-yl)piperidin-1-yl]sulfonyl}-9-(cyclohexylmethyl)-3-methylidene-1,5,9-triazacyclododecan-1-yl)sulfonyl]-N,N-dimethylaniline] | < 4.60 | 10.8 | 14.1 | < 4.60 | 2.56 | 13.4 | 6.56 | < 4.60 |
| C=C1CN(S(=O)(=O)c2ccc(N(C)C)cc2)CCCN(CC2CCCCC2)CCCN(S(=O)(=O)N2CCC(c3ncccn3)CC2)C1 [A81, 4-{[9-(cyclohexylmethyl)-3-methylidene-5-{[4-(pyrimidin-2-yl)piperidin-1-yl]sulfonyl}-1,5,9-triazacyclododecan-1-yl]sulfonyl}-N,N-dimethylaniline] | < 4.60 | 0.2 | 0.12 | < 4.60 | 0.03 | 0.12 | 6.32 | < 4.60 |
| C=C1CN(S(=O)(=O)c2ccc(N(C)C)cc2)CCCN(CC2CCCCC2)CCCN(S(=O)(=O)N2CCc3nc(Cl)ccc3C2)C1 [A82, 4-({5-[(2-chloro-5,6,7,8-tetrahydro-1,6-naphthyridin-6-yl)sulfonyl]-9-(cyclohexylmethyl)-3-methylidene-1,5,9-triazacyclododecan-1-yl}sulfonyl)-N,N-dimethylaniline] | 5.81 | 0.3 | 0.16 | < 4.60 | 0.23 | 0.08 | 7.52 | 5.64 |
| C=C1CN(S(=O)(=O)c2ccc(N(C)C)cc2)CCCN(CC2CCCCC2)CCCN(S(=O)(=O)N2CCN(c3ccccc3Cl)CC2)C1 [A83, 4-[(5-{[4-(2-chlorophenyl)piperazin-1-yl]sulfonyl}-9-(cyclohexylmethyl)-3-methylidene-1,5,9-triazacyclododecan-1-yl)sulfonyl]-N,N-dimethylaniline] | 6.02 | 39.3 | 47.6 | < 4.60 | 34.9 | 23.4 | 7.55 | 6.02 |
| C=C1CN(S(=O)(=O)c2ccc(N(C)C)cc2)CCCN(CC2CCCCC2)CCCN(S(=O)(=O)N2CCN(c3cccc(Cl)c3)CC2)C1 [A84, 4-[(5-{[4-(3-chlorophenyl)piperazin-1-yl]sulfonyl}-9-(cyclohexylmethyl)-3-methylidene-1,5,9-triazacyclododecan-1-yl)sulfonyl]-N,N-dimethylaniline] | < 4.60 | 60.6 | 67.3 | < 4.60 | 65.8 | 68.3 | 6.75 | < 4.60 |
| C=C1CN(S(=O)(=O)c2ccc(N(C)C)cc2)CCCN(CC2CCCCC2)CCCN(S(=O)(=O)N2CCN(c3ccc(Cl)cc3)CC2)C1 [A85, 4-[(5-{[4-(4-chlorophenyl)piperazin-1-yl]sulfonyl}-9-(cyclohexylmethyl)-3-methylidene-1,5,9-triazacyclododecan-1-yl)sulfonyl]-N,N-dimethylaniline] | < 4.60 | 25.6 | 64.9 | < 4.60 | 42.9 | 52.2 | 7.06 | < 4.60 |
